Test results published in paper PMC2363969, “gp100/pmel17 and tyrosinase encode multiple epitopes recognized by Th1-type CD4+T cells” (British Journal of Cancer, 2001).
Read-outs that look alike come from different tables or passages of the source. Where a SMILES comes first, the peptide text is derived from it. Where no end group is shown, it is not given here.

What was measured:
HLA-DRB1*0401 = HLA-DRB1*0401 (Homo sapiens, UniProt P01903+P01911, A100K/A169T/F76Y/I96L/K127E/L162R/M171V/N62H/P40V/Q125Y/R42H/S133A/S149N/S66Y/V115G/V209L/W38E); assay: solid-state competitive-binding assay, purified HLA-DR4
CD4+ T cells [1] = assay: IFN-γ ELISPOT, freshly-isolated peripheral blood CD4+ T cells vs peptide-pulsed T2.DR4; type: cell-based, human; settings: positive if above normal donor mean + 3 S.D.; for T cell responses evaluated in MEL (of 5): number of responding patients: HLA-DR4+ melanoma patients with active disease, n = 5, 20 h IFN-γ ELISPOT; for T cell responses evaluated in MEL-NED (of 11): number of responding patients: HLA-DR4+ melanoma patients with no evidence of disease, n = 11, 20 h IFN-γ ELISPOT
CD4+ T cells [2] = assay: IFN-γ ELISPOT, normal donor CD4+ T cells after in vitro stimulation with peptide-pulsed autologous DC; type: cell-based, human; settings: for T cell responses evaluated in ND-IVS (of 10): number of responding normal donors: normal HLA-DR4+ donors, n = 10, after 2 rounds of in vitro stimulation with autologous DC pulsed with peptide, IFN-γ ELISPOT
HLA-DRB1*0404 = HLA-DRB1*0404 (Homo sapiens, UniProt P01903+P01911, A100R/A169T/F76Y/I96L/K127E/L162R/M171V/N62H/P40V/Q125Y/R42H/S133A/S149N/S66Y/V209L/W38E); assay: solid-state competitive-binding assay, purified HLA-DR4
[3] = read-out: Binding affinity (IC50) DRB1*0401
[4] = read-out: Binding affinity (IC50) DRB1*0404

| Molecule | IC50 (HLA-DRB1*0401; [3]) [µM] | T cell responses evaluated in MEL (of 5): number of responding patients (CD4+ T cells [1]) | T cell responses evaluated in MEL-NED (of 11): number of responding patients (CD4+ T cells [1]) | T cell responses evaluated in ND-IVS (of 10): number of responding normal donors (CD4+ T cells [2]) | also measured |
| --- | --- | --- | --- | --- | --- |
| CC[C@H](C)[C@H](NC(=O)[C@H](CCC(N)=O)NC(=O)[C@H](Cc1c[nH]cn1)NC(=O)[C@H](CC(C)C)NC(=O)[C@@H](NC(=O)[C@H](CC(C)C)NC(=O)[C@H](CCC(N)=O)NC(=O)[C@H](CS)NC(=O)[C@H](C)NC(=O)[C@@H]1CCCN1C(=O)[C@H](CO)NC(=O)[C@@H]1CCCN1C(=O)[C@H](CC(C)C)NC(=O)[C@@H](NC(=O)[C@@H]1CCCN1C(=O)[C@H](CCC(N)=O)NC(=O)[C@H](CS)NC(=O)[C@@H](N)CC(C)C)C(C)C)C(C)C)C(=O)N[C@@H](CC(C)C)C(=O)N[C@@H](CCCCN)C(=O)NCC(=O)NCC(=O)O [gp100/pmel17540-561] (H-LCQPVLPSPACQLVLHQILKGG-OH) | > 10 | – | – | – | – |
| KRCLLHLAVIGALLAVGATKV [gp100/pmel176-26] | > 10 | – | – | – | – |
| WMHYYVSMDALLGGSEI [tyrosinase178-194, synthetic peptide derived from tyrosinase] | – | 1 patients (of 5) | 1 patients (of 11) | 3 donors (of 10) | immunogen grade on an arbitrary scale (CD4+ T cells [2]; in both melanoma patients and in vitro stimulated normal donors, weak / moderate / strong): moderate |
| VYVWKTWGQYWQVLGGPVS [gp100/pmel17150-168] | – | 0 patients (of 5) | 0 patients (of 11) | 0 donors (of 10) | IC50 (HLA-DRB1*0401): > 10 µM; IC50 (HLA-DRB1*0404): > 10 µM |
| IVGILLVLMAVVLASLIYRRR [gp100599-619 /pmel17606-626] | > 10 | 0 patients (of 5) | 0 patients (of 11) | 0 donors (of 10) | IC50 (HLA-DRB1*0404; [4]): > 10 µM |
| VSGLSIGTGRAMLGTHTMEVTVY [gp100/pmel17167-189] | > 10 | – | – | – | – |
| ALHIYMDGTMSQVQGSA [tyrosinase365-381D] | – | – | – | – | IC50 (HLA-DRB1*0401): 0.017 µM; IC50 (HLA-DRB1*0404): 0.031 µM |
| CC(C)[C@H](NC(=O)[C@H](CO)NC(=O)[C@@H]1CCCN1C(=O)[C@@H](N)Cc1c[nH]c2ccccc12)C(=O)N[C@@H](Cc1ccccc1)C(=O)N[C@@H](Cc1ccc(O)cc1)C(=O)N[C@@H](CC(N)=O)C(=O)N[C@@H](CCCNC(=N)N)C(=O)N[C@H](C(=O)N[C@@H](CS)C(=O)N[C@@H](CCC(N)=O)C(=O)N[C@@H](CS)C(=O)N[C@@H](CO)C(=O)NCC(=O)N[C@@H](CC(N)=O)C(=O)N[C@@H](Cc1ccccc1)C(=O)O)[C@@H](C)O [tyrosinase80-95] (H-WPSVFYNRTCQCSGNF-OH; N-terminus and C-terminus assumed) | – | 0 patients (of 5) | 0 patients (of 11) | 0 donors (of 10) | – |
| PGPVTAQVVLQAAIPLTSCGSS [gp100/pmel17283-304] | – | – | – | – | IC50 (HLA-DRB1*0404; [4]): 0.051 µM |
